Measurements reported in publication PMC4207131, “Cyclic Adenosine 5′-Diphosphate Ribose Analogs without a “Southern” Ribose Inhibit ADP-ribosyl Cyclase–Hydrolase CD38” (Journal of Medicinal Chemistry, 2014).
Entries after “also recorded” stand apart in the source; their conditions may differ. Read-outs that look alike come from different tables or passages of the source.

Columns and labels:
[1] = biological target: T1, CD38 catalytic domain (shCD38) (Homo sapiens, UniProt P28907, N100D/N164A/N209D/N219D); parameters: incubating 1 μM cADPR with 1 μg/mL CD38 catalytic domain for 10 min; made in house; conditions: equivalent 8-substituted cIDPRs; read-out: IC50, inhibition of shCD38-mediated cADPR hydrolysis; cited from earlier work
T1 sequence (P28907 43-300 N100D/N164A/N209D/N219D limits assumed): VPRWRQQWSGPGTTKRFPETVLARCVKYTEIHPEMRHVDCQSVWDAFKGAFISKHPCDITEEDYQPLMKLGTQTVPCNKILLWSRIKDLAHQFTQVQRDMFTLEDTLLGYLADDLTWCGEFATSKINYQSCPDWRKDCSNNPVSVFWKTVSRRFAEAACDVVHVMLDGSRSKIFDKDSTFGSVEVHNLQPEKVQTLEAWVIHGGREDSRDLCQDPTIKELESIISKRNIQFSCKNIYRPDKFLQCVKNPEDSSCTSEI

[2] = cited from earlier work
[3] = cited from earlier work; remark: listed apart in the source
[4] = biological target: T1, CD38 catalytic domain (shCD38); test: RP-HPLC study of ligand hydrolysis by shCD38; conditions: for hydrolysis by shCD38 at enzyme assay concentration: shCD38 1 μg/mL; for hydrolysis by shCD38 at enzyme assay concentration / hydrolysis by shCD38 at high concentration / time to 50% hydrolysis: ligand 1 mM; for hydrolysis by shCD38 at high concentration / time to 50% hydrolysis: shCD38 4 mg/mL; for time to 50% hydrolysis: Tris-HCl pH 8, room temperature
Description: Incubation of 7 (1 mM final concentration) with 4 mg/mL shCD38 was monitored using RP-HPLC.
Therefore, further HPLC experiments were carried out using shCD38 concentrations of 1 μg/mL and either cIDPR or 7 to observe the effect of CD38 under conditions that reflect the enzyme assay (Supporting Information, Figure S3).
The solution containing the CD38 catalytic domain was adjusted to the desired concentration using Tris-HCl buffer (20 mM, pH 8), and 50 μL therefrom was added to the inhibitor (0.05 μmol) in an Eppendorf tube at room temperature. At a given time point, a sample of 5 μL was removed and diluted with 95 μL of Milli-Q water. Then 10 μL of this sample was injected directly into the analytical HPLC system (see section General in Experimental Section), eluting at 1 mL/min with an isocratic ion-pair buffer: 0.17% (m/v) cetrimide and 45% (v/v) phosphate buffer (pH 6.4) in MeOH.

[5] = test system: Ca^2+-release in permeabilized T-cells; parameters: method as in PMID 12932045, PMID 19492987; conditions: cited from earlier work
[6] = biological target: T1, CD38 catalytic domain (shCD38); test: Inhibition of shCD38-mediated cADPR hydrolysis (fluorimetric cycling assay); type: biochemical; parameters: incubating 1 μM cADPR with 1 μg/mL CD38 catalytic domain for 10 min; made in house; conditions: 1 μM cADPR, 1 μg/mL CD38 catalytic domain, 10 min, 20–24 °C, 25 mM sodium acetate pH 4.5
Description: The inhibition of cADPR hydrolysis by various concentrations of analog (0–1 mM) was determined by incubating 1 μM cADPR with 1 μg/mL CD38 catalytic domain for 10 min at 20–24 °C in 25 mM sodium acetate, pH 4.5. The reaction was stopped by the addition of 150 mM HCl. The precipitated protein was filtered, and the pH was neutralized with Tris base. After the mixture was diluted 20-fold, the concentration of the unhydrolyzed cADPR present in the diluted reaction mixture was assayed by the fluorimetric cycling assay as described previously.[52]

Nc1nc2c(=O)n3cnc2n1C1OC(COP(=O)(O)OP(=O)(O)OCC2OC3C(O)C2O)C(O)C1O (stereo not drawn) [8-NH2-cIDPR]
IC50 [1]: 56 µM

N=c1c2ncn3c2ncn1[C@@H]1O[C@H](COP(=O)(O)OP(=O)(O)OC[C@H]2O[C@@H]3[C@H](O)[C@@H]2O)[C@@H](O)[C@H]1O [cADPR, Cyclic adenosine 5′-diphosphate ribose]
pKa of the N6-amino form [2]: 8.3
hydrolysis at the N1 link ([3]; neutral aqueous solution and physiological conditions): hydrolyzed at the N1 link in both neutral aqueous solution and under physiological conditions

N=c1c2ncn3c2ncn1[C@@H]1C[C@H](COP(=O)(O)OP(=O)(O)OC[C@H]2O[C@@H]3[C@H](O)[C@@H]2O)[C@@H](O)[C@H]1O [cADPcR, cyclic adenosine 5′-diphosphate carbocyclic ribose]
pKa of the N6-amino dissociation [2]: 8.9

O=c1c2ncn3c2ncn1[C@@H]1O[C@H](COP(=O)(O)OP(=O)(O)OC[C@H]2O[C@@H]3[C@H](O)[C@@H]2O)[C@@H](O)[C@H]1O [compound 2, N1-cyclic inosine 5′-diphosphate ribose]
hydrolysis by shCD38 at enzyme assay concentration ([4]; listed as cIDPR): neither cIDPR (2) or 8-NH2-N9-butyl-; also recorded: not hydrolyzed
hydrolysis by shCD38 at high concentration [4]: hydrolyzed by the enzyme at 4 mg/mL but at a slower rate than 7
time to 50% hydrolysis [4]: 420 min
ionization over the pH range [2]: no ionization between 6.8 and 10.9
Ca2+-release agonism ([5]; permeabilized T-cells): agonist for Ca^2+-release with almost equivalent potency to cADPR
chemical and biological stability [3]: Chemically and biologically stable

O=c1c2nc(Br)n3c2ncn1[C@@H]1O[C@H](COP(=O)(O)OP(=O)(O)OC[C@H]2O[C@@H]3[C@H](O)[C@@H]2O)[C@@H](O)[C@H]1O [compound 3]
Ca2+-release agonism, membrane permeant [5]: stable membrane permeant agonist of Ca^2+ release
chemical and biological stability [3]: Chemically and biologically stable

O=c1c2ncn3c2ncn1[C@@H]1O[C@H](COP(=O)(O)OP(=O)(O)OCCCC3)[C@@H](O)[C@H]1O [compound 4, N1-Cyclic Hypoxanthine-N9-hydroxybutyl Diphosphate Ribose]
hydrolysis by shCD38 at high concentration [4]: hydrolyzed by the enzyme at 4 mg/mL but at a slower rate than 7

O=c1c2nc(Br)n3c2ncn1[C@@H]1O[C@H](COP(=O)(O)OP(=O)(O)OCCCC3)[C@@H](O)[C@H]1O [compound 5, N1-Cyclic-8-bromohypoxanthine-N9-hydroxybutyl Diphosphate Ribose]
hydrolysis by shCD38 at high concentration [4]: hydrolyzed by the enzyme at 4 mg/mL but at a slower rate than 7
IC50 [6]: 27 µM

[N-]=[N+]=Nc1nc2c(=O)n3cnc2n1CCCCOP(=O)(O)OP(=O)(O)OC[C@H]1O[C@@H]3[C@H](O)[C@@H]1O [compound 6, N1-Cyclic-8-azidohypoxanthine-N9-hydroxybutyl Diphosphate Ribose]
IC50 [6]: 6.4 µM

Nc1nc2c(=O)n3cnc2n1CCCCOP(=O)(O)OP(=O)(O)OC[C@H]1O[C@@H]3[C@H](O)[C@@H]1O [compound 7, N1-Cyclic-8-aminohypoxanthine-N9-hydroxybutyl Diphosphate Ribose]
change of the ligand peak in the control without shCD38 ([4]; parallel control containing no shCD38): no change in the original peak
hydrolysis by shCD38 at enzyme assay concentration [4]: not hydrolyzed
hydrolysis by shCD38 at high concentration [4]: faster hydrolysis
time to 50% hydrolysis [4]: 105 min
IC50 [6]: 3.3 µM
